Test results published in patent US7638678B2, “Animal model for perimenopause and menopause and methods of inducing ovarian failure” (The Arizona Board of Regents, priority 2002, dated 2009).
“Also recorded” adds a separate entry of the source. Like-named read-outs stand apart in the source and are kept apart here.

Key:
ovarian follicles [1] = test: Follicle depletion by other routes and vehicles; assay type: in vivo; details: i.p. injection in DMSO vehicle
ovarian follicles [2] = details: mice, cited from earlier work
[3] = Body and wet tissue weights, vaginal opening; assay type: in vivo, B6C3F1 mice
Procedure: (§1) Treatment: Immature mice (d28) were weighed and injected i.p. with either 80 mg/kg (1, 2, or 3 times daily), 160 mg/kg (1 or 2 times daily), or 240 mg/kg (once daily) with VCD or sesame oil (vehicle control, i.p.) for 15 d resulting in a total daily exposure of 80, 160, 240, or 320 mg/kg (n=6/group). All reagents were obtained from Sigma-Aldrich (St. Louis, Mo.). Estrous cycles of each animal were monitored daily by vaginal cytology from date of vaginal opening to persistent diestrus in VCD-treated mice, and from date of vaginal opening to d120 in controls. On d8, d10, d12, d14, d15, d30, d37, d46, d57 and d120, animals were weighed, euthanized by CO2 inhalation, and the ovaries, liver and trunk blood were collected. Plasma was separated from whole blood and stored at −20° C., and liver tissues were stored at −80° C. At each time point, adrenals, kidneys, uteri, ovaries, liver, and spleen were removed, grossly examined for lesions and wet tissue weights were recorded. Additional blood samples were collected by retro-orbital puncture and plasma was collected and stored on d58, d79, d91, and d100.

[4] = Tolerability of VCD dosing regimens; assay type: in vivo, mice
ovarian follicles [5] = details: cited from earlier work
femur = test: Femur histology; assay type: in vivo, B6C3F1 mice; details: 160 mg/kg 15 d, femora d58
Procedure: Histology and oocyte counting: Ovaries were trimmed of fat and placed in Bouin's fixative (2 hours), transferred to 70% ethanol, paraffin-embedded and serially sectioned (4-5 μm), mounted and stained with hematoxylin and eosin. In every 20th section (10-13 sections per ovary), pre-antral follicles were classified as primordial (oocyte surrounded by a single layer of flattened granulosa cells), primary (oocyte surrounded by a single layer of cuboidal cells), secondary (oocyte surrounded by multiple layers of granulosa cells) or antral follicles (follicles containing a fluid-filled antrum). Femora were collected on d58 from both control and VCD-treated animals, fixed in 4% paraformaldehyde, transferred to formaldehyde/formic acid (Cal-Rite, Richard Allan Scientific, Kalamazoo, […]., decalcified 24 hours, vacuum embedded in paraffin and 4.5 μm sections of distal metaphysis were prepared and stained with hematoxylin and eosin.

androstenedione = test: Circulating androstenedione RIA; assay type: in vivo, B6C3F1 mice; details: 160 mg/kg 15 d
Procedure: as §1, with “Plasma was separated from whole blood and stored at −20° C., and liver tissues were stored at −80° C.” left out, “Additional blood samples were collected by retro-orbital puncture and plasma was collected and stored on d58, d79, d91, and d100.” left out
Hormone Assays: Plasma FSH was measured by radioimmunoassay (RIA). […] Tubes were centrifuged for 15 minutes at 3000 rpm, supernatant was decanted and pellets were counted in a gamma counter for 1 minute each. […] Plasma 17β-estradiol was measured in unextracted plasma by radioimmunoassay (Diagnostic Products Inc., CA). […] Circulating androstenedione was measured by specific RIA. […] The results of all RIAs were calculated by four-parameter logistic analysis using the software AssayZap (BioSoft, Ferguson, Mo.). […]

[6] = intravenous 14C-tagged VCD, cited from earlier work
caspase-3 = test: Caspase-3 protease activity in isolated small pre-antral follicles; assay type: in vivo, B6C3F1 mice
Procedure: Follicle Isolation: Small preantral follicles (fraction 1, 25-100 μm in diameter), were prepared by gentle enzymatic dissociation of ovaries and hand sorting with micropipettes. Pools of follicles were prepared from both ovaries of six mice in each treatment (control or VCD) for each observation. Following isolation, follicles were washed twice with M199 medium and stored at −20° C.
Caspase-3 Protease Activity Measurement: The cleavage activity of caspase-3 was measured by a fluorescent activity assay. Briefly, the enzymatic reaction was carried out at 37° C. in protease assay buffer (20 mM HEPES, 100 mM NaCl, 10 mM dithiothreitol, 1 mM EDTA, 0.1% [w/v] 3-3 ([3-cholamidopropyl] dimethylammonio)-1-propanesulfanate, and 10% sucrose pH 7.2). Cellular protein (60-180 μg) was incubated with 50 μM of caspase-3 substrate, DEVD-AMC, at 37° C. for 60 minutes. Substrate cleavage was detected by measurement of the fluorescence of free 7-amino-4-methylcoumarin (AMC) with an F-2000 fluorescence spectrophotometer (Hitachi, Ltd., Tokyo, Japan) at 460 nm emission upon excitation at 380 nm.

[7] = cited from earlier work
estrous cycle = test: Estrous cyclicity by vaginal cytology; assay type: in vivo, B6C3F1 mice; details: 160 mg/kg i.p.
Procedure: as §1

For C1CC2OC2CC1C1CO1 (centres unmarked) [VCD, 4-vinylcyclohexene diepoxide], the “Follicular depletion with DMSO vehicle versus sesame oil” value (ovarian follicles [1]) is listed as “achieves the same follicular depletion”, the “Number of primordial and primary follicles compared to vehicle controls” value (ovarian follicles [2]; 12 days of dosing) is listed as “significant reduction” and the “Numbers of secondary follicles” value (ovarian follicles [2]; 30 days of dosing) is listed as “significant reduction”. For the same compound, the “Adrenal, kidney and spleen weight” value ([3]; 160 mg/kg 15 d, any time) was “not affected; also recorded: no effect”, the Whole body weights ([3]; 160 mg/kg 15 d, any time-point) was “not affected” and the “Increase in liver weight” value ([3]; 160 mg/kg 15 d, d15) was 10 % above control. For the same compound, the “Uterine weight relative to age-matched vehicle controls” value ([3]; 160 mg/kg 15 d, d15) was 66.04%, the “Increase in liver weight” value ([3]; 160 mg/kg 15 d, d37) was 15 % above control and the Ovarian weight ([3]; 160 mg/kg 15 d, d37) was 71.2 % of control. The “Uterine weight relative to age-matched vehicle controls” value ([3]; 160 mg/kg 15 d, d37) was 71.8%, the Liver weight ([3]; 160 mg/kg 15 d, d46) was “returned to control levels” and the Ovarian weight ([3]; 160 mg/kg 15 d, d46) was 61.8 % of control. For the same compound, the Ovarian weight ([3]; 160 mg/kg 15 d, d120) was 20.7 % of control, the “Uterine weight relative to age-matched vehicle controls” value ([3]; 160 mg/kg 15 d, d120) was 47.0% and the “Ovarian tissue weights across treatment groups” value ([3]; d10 or d15) was “not significantly different”. For the same compound, the “Onset of vaginal opening” value ([3]; not affected by VCD treatment) was 31 ± 0.5 days, the “Adverse effects of the single daily injection regimen” value ([4]; 160 mg/kg/d i.p. for 15 d) was “without adverse effects” and the “Outcome of total dose injected in a single bolus” value ([4]; 2400 mg/kg single bolus) was “died and die within hours”. The “Tolerance of dosing 3 times a day” value ([4]; 3 times a day @ 80 mg/kg (total 240 mg/kg/d)) was “tolerated VCD as well as mice injected once a day with 160 mg/kg; also recorded: tolerate VCD well”, the “Premature ovarian failure in long term studies” value (ovarian follicles [5]; F344 rats dosed with VCD) was “premature ovarian failure occurred within a year” and the “Number of primordial and primary follicles compared to vehicle controls” value (ovarian follicles [5]; rats, 12 days of dosing) was “significant reduction”. The “Numbers of secondary follicles” value (ovarian follicles [5]; rats, 30 days of dosing) was “significant reduction”, the “Femur morphology relative to controls” value (femur) was “enhanced distances from growth plate to distal metaphysis of the femur with increased lucane” and the “Relative abundance of androgen versus estrogen” value (androstenedione; d46) was 97 % of androgen plus estrogen. The Circulating androstenedione (androstenedione; d46, plasma pools) was 0.73 ± 0.05 ng/mL, the Half life ([6]; blood) was 4.4 min and the Mean residence time [6] was 4.7 min. The “Cleavage activity of caspase-3 in isolated small pre-antral follicles relative to controls” value (caspase-3; 160 mg/kg or 80 mg/kg i.p., 10 d, 4 hours after final treatment) was “increased”, the “Caspase-3 activity in small pre-antral (primordial and primary) follicles” value (caspase-3; 160 mg/kg/day i.p., 10 d of dosing) was 14.37 flourescent units/40 μg protein and the Water solubility [7] was “water soluble”. For the same compound, the Estrous cyclicity (estrous cycle; by d58) was “all animals were acyclic” and the “Animals with irregular cycle length” value (estrous cycle; d15, irregular = less than 3 d or greater than 5 d) was 7/24.
